Assays:
[1] = test system: mouse BMSCs (mBMSCs); test: ALP activity in mouse bone marrow stromal cells; format: cell-based; conditions: 1 nM, seven days post-treatment
[2] = test system: rat BMSCs (rBMSCs); test: Nodule mineralization (Alizarin Red S) in rBMSCs; format: cell-based; conditions: 21 days post-treatment, differentiation medium
Method: Rat and mouse BMSCs were seeded at a density of 1 × 10^6 cells/well in a 6-well plate, vehicle or MTZ (1 nM) treatment was conducted, and the media were changed every alternate day for 21 days using a differentiation medium [10% FBS, β-glycerophosphate (10 mM), ascorbic acid (50 µg/mL), and dexamethasone (100 nM) in α-MEM].
Cells were fixed with 10% formalin for 15 min and stained with Alizarin Red for 1 h after 21 days of culture. Moreover, 10% cetylpyridinium chloride (Sigma #C0732) was used to quantify mineralized nodules at a 595 nm wavelength.

[3] = test system: Runx2 expression in C3H10T1/2 cells; test: Western blotting of Runx2 in C3H10T1/2 cells; format: cell-based, murine; conditions: 10 nM
Method: (§1) Western blotting was performed as previously described. Briefly, whole-cell extracts (WCEs) were prepared at indicated time points using RIPA lysis buffer, and aliquots of 30 μg protein per lane were loaded and resolved on SDS-PAGE (10%), followed by blotting onto the PVDF membrane (Millipore Inc., Burlington, MA, USA). The membrane was blocked in 1% BSA, followed by immunoblotting with primary antibodies: Runx2 (ab 76956) (1:1000), pGSK (9323S) (1:1000), and GSK (9315S) (1:1000) at 4 °C overnight. Anti-rabbit HRP secondary antibody (Sigma, catalog number A0545) (1:3000) was used for Runx2, pGSK3β, and GSK3β. Bands were detected by incubating the membranes with ECL substrate (Thermo Fisher Scientific, Waltham, MA, USA) and developed on ChemiDoc (Image Quant LAS 4000, GE Healthcare, Hatfield, UK). Blots were re-probed after washing with mild stripping buffer (1.5% Glycine, 0.1% SDS, and 1% Tween 20).

[4] = test system: GSK3β phosphorylation in RCO; test: Western blotting of p-GSK/GSK in RCO; format: cell-based, rat; conditions: 10 nM
Method: as §1

[5] = test system: bone regeneration at the femur osteotomy site; test: Femur osteotomy model, oral MTZ; format: in vivo, Sprague Dawley rats; conditions: 117 mg/kg and 235 mg/kg oral daily, 12 days
Method: (§2) Femur osteotomy was carried out in adult female Sprague Dawley (SD) rats (200 ± 20 g, 3 months old) and 3-month post-ovariectomized osteopenic SD rats (280 ± 20 g, 6 months old) by inserting a drill bit with a diameter of 0.8 mm from the anterior to the posterior mid-diaphysis of the right femur.
(§3) The human equivalent dose for rats is 235 mg/kg; half of this amount, 117 mg/kg, was used for the study. Doses of MTZ (117 mg/kg and 235 mg/kg) were administered daily by the oral route for 12 days. For the formulation study, MTZ@In situ gel and unformulated MTZ were administered every 3 days (total of 4 injections) for a period of 12 days via the subcutaneous route in the osteotomy animal. Each rat received 20 mg/kg, s.c. of bone-seeking fluorochrome calcein 24 h before sacrifice in order to evaluate the new bone formation at the fractured callus.
(§4) A SkyScan 1076 μCT scanner (SkyScan, Ltd., Kartuizersweg, Kontich, Belgium) was used to perform a high-resolution μCT for the two-dimensional and three-dimensional assessment of excised bones. The rat bone scanning process used an isotropic voxel pixel size of 18 μm and an X-ray source of 70 kV and […]. Utilizing the SkyScan Nrecon software (Version: 1.7.0.4), cross-sectional reconstruction was performed. […] The Batman software (Version: 1.16.8.0+), with trabecular (3D) bone analysis programs was used for quantification.

[6] = test system: femur head strength of OVX rats; test: OVX osteopenia model, femur head compression test; format: in vivo, SD rats; conditions: 235 mg/kg oral, 3 months
Method: The 10-month-old (265 ± 20 g) SD rats were ovariectomized (OVX) bilaterally and left for 3 months to develop osteopenia. Ovary-intact sham-operated animals were used as a control. A live animal micro-CT was performed to confirm osteopenia, followed by dividing the animals into 3 groups: Sham + vehicle (water, oral), OVX + vehicle (water, oral), and OVX + MTZ (235 mg/kg, oral). Each group had 9 rats, and treatment were administered for 3 months. Calcein (20 mg/kg, s.c.) was injected twice before sacrificing at 10-day intervals. The mechanical compression strength of the femur head was examined by a compression test with a bone strength tester, TK […] (Muromachi Kikai Co., Ltd., Tokyo, Japan), as described before.

[7] = test system: Wnt/β-catenin signaling (TOP-Flash reporter, HEK293T cells); test: Wnt/β-catenin TOP-Flash reporter assay; format: cell-based; conditions: 24 h
Method: The effect of MTZ on β-catenin signaling was assayed using a TOP-Flash reporter plasmid that contained a minimal TA viral promoter coupled to β-catenin-responsive TCF/LEF-binding sites upstream of a firefly luciferase gene (a kind gift from Prof. Yosef Yarden, WIS, Israel). Briefly, HEK293T cells were transfected with 0.5 μg of the TOP-Flash plasmid. Additionally, the GFP-encoding plasmid, pEGFP, was transfected as a control for transfection efficiency. […] In white opaque plates, the lysate and 100 μL of luciferase assay buffer (10 mM KH2PO4, 2 mM ATP, 1 mM D-luciferin, NaCl, and MgCl2) were added, and luminescence was measured. Luminescence values were normalized by EGFP plasmid fluorescence value, and the fold-change was calculated relative to the control.

[8] = test system: bone regeneration at the callus site in OVX rats; test: Femur osteotomy model in osteopenic OVX rats, oral MTZ; format: in vivo, ovariectomized osteopenic SD rats; conditions: 235 mg/kg oral, 12 days
Method: as §2, §3, §4

[9] = test system: rat BMSCs (rBMSCs); test: BrdU proliferation assay in rBMSCs; format: cell-based; conditions: 1 nM
Method: Rat and mouse bone marrow stromal cells (BMSCs) were seeded at a density of 4000 cells/well in a 96-well plate for cell proliferation and treated with 1 nM of MTZ for 48 h in a growth medium (α-MEM containing 10% FBS). Following the MTZ treatment, the cells were incubated for 4 h with bromodeoxyuridine (BrdU) before termination. Cell proliferation was assessed at 450 nm using the Roche Diagnostics BrdU ELISA kit, in accordance with the manufacturer’s protocol, using a reference wavelength of 690 nm.

For `Cc1ncc([N+](=O)[O-])n1CCO` [Metronidazole], the “ALP activity compared to the vehicle group” value [1] was “increased”, the “Osteogenic differentiation and mineralized nodule formation” value [2] was “stimulated” and the Runx2 expression [3] was “increased”. For the same compound, the GSK3β phosphorylation [4] was “increased GSK3β phosphorylation in a time-dependent manner”, the “Time of maximum effect on GSK3β phosphorylation” value [4] was 15 min and the “Bone volume at the osteotomy site” value [5] was “increased”. The “Calcein intensity at the osteotomy site” value [5] was “increased”, the “Energy (femur head compression)” value [6] was “reversed both parameters to sham levels” and the “Maximum power (femur head compression)” value [6] was “reversed both parameters to sham levels”. The “Stiffness (femur head compression)” value [6] was “failed to increase it”, the TOP-Flash reporter activity [7] was “increased” and the “Bone volume at the callus site compared to the control group” value [8] was “increased”. The “Calcein intensity at the callus site compared to the control group” value [8] was “increased” and the “Proliferation (BrdU incorporation)” value [9] was “did not affect”.

Reference: publication PMC11274654 (Biomedicines, 2024)
